What was measured:
Assay type in all cases: cell-based
human granulocytes [1] = assay: Intracellular calcium [Ca2+]i in granulocytes
Experimental: Granlocytes were isolated by density gradient centrifugation from the peripheral blood of healthy donors, after informed consent. Contaminating erythrocytes were removed by hypotonic lysis. […] The increase of [cADPR]i in turn induces a progressive rise of [Ca^2+]i, from a basal value of 50±2 nM to 170±25 nM after 10 min from the addition of 10 μM ABA (n=4). […] The increase of the [Ca^2+]i induced by ABA in granulocytes is in turn responsible for activation of several functional activities typical of these cells. The functional effects induced by ABA (at concentrations ranging between 0.2 and 20 μM) in granulocytes include stimulation of the production of reactive oxygen species (ROS), measured through the cytochrome c […] (FIG. 2A), and of nitric oxide (NO), measured as accumulation of nitrite, the end-product of NO […] (FIG. 2B).

human granulocytes [2] = assay: ROS production by granulocytes (cytochrome c assay)
Experimental: Granulocytes were resuspended at 5×10^6/ml in HBSS and 225 μl of the cell suspension were added to 50 μl of 0.2 mM cytochrome c and were incubated for 30 min at 37° C. in the absence (control) or in the presence of 250 nM or 20 μM ABA, the latter concentration without or with 1 mM EDTA, 20 mM nicotinamide or 0.1 mM 8-Br-cADPR. The amount of ROS (panel A) or of NO (panel B) in the cell supernatant was measured as described in Materials and Methods. The results are expressed as the production relative to control cells, not stimulated with ABA, and are the mean ±SD from 5 experiments.
Release of superoxide (O2^−) by human granulocytes was quantified by a spectrophotometric assay of cytochrome c reduction (Cohen, J Clin Invest 1978). Granulocytes were resuspended in HBSS (at 5×10^6 cells/ml) and 225 μl of the cell suspension was incubated for 30 min at 37° C. with 50 μl cytochrome c (0.2 mM) in the absence (control) or in the presence of ABA at different concentrations. Then, cells were centrifuged at 5,000×g for 15 s and the absorbance of the supernatants was recorded at 550 nm (λmax for reduced cytocrome c).

human granulocytes [3] = assay: NO release by granulocytes (nitrite, Griess)
Experimental: Granulocytes were resuspended at 5×10^6/ml in HBSS and 225 μl of the cell suspension were added to 50 μl of 0.2 mM cytochrome c and were incubated for 30 min at 37° C. in the absence (control) or in the presence of 250 nM or 20 μM ABA, the latter concentration without or with 1 mM EDTA, 20 mM nicotinamide or 0.1 mM 8-Br-cADPR. […] The results are expressed as the production relative to control cells, not stimulated with ABA, and are the mean ±SD from 5 experiments.
The method used to determine NO released from the cells into the medium exploits the spontaneous conversion of NO to nitrates and the subsequent enzymatic reduction of nitrates to nitrites by the enzyme nitrate reductase. […] Granulocytes (60×10^6/well) or murine microglia cells N9 (2×10^5/well) were incubated in 24-well plates for 60 min at 37° C. in the presence of ABA at different concentrations. The supernatants were then centrifuged and diluted with an equal volume of Griess reagent (0.1% naphthyl-ethylenediamine dihydrochloride in distilled water, 1% sulphanylamide in 5% concentrated H3PO4). Absorbance at 545 nm was estimated after 10 min and the nitrite concentration was calculated using a standard curve, generated in parallel with known amounts of NaNO2.

human granulocytes [4] = assay: Chemotaxis and chemokinesis of granulocytes
Experimental: Assays were performed using 96-well ChemoTx system microplates with a 3-μm pore size polycarbonate filter (NeuroProbe Inc., Gaithersburg, USA). Cells (granulocytes or murine microglia) were resuspended at 10^7/ml in HBSS, PBS and 5% albumin, 39:16:1 (chemotaxis buffer, CB). In order to evaluate the chemoattractant effect of ABA, hormone concentrations ranging from 50 nM to 20 μM were added in CB in the bottom wells and 25 μl cell suspensions were placed on top of the filter. To evaluate a possible stimulatory effect of ABA on spontaneous cell movements (chemokinesis), cells were pre-incubated with or without 20 μM ABA, then washed and placed on top of the filter, in contact with CB. Plates were incubated at 37° C. for 60 min and transmigrated cells were recovered and quantified by fluorimetric assay with Cytox Green. The number of transmigrated cells was calculated by comparison of the measured fluorescence with that of a standard curve, obtained by directly placing a serial dilution of cells in the bottom wells. The results of the chemotaxis experiments are expressed as “chemotaxis index” (CI): CI=number of cells migrated towards chemoattractant/number of cells migrated towards CB

| SMILES | inhibition of the ABA-induced increase of [Ca2+]i (human granulocytes [1]) | effect on ABA-induced ROS production (human granulocytes [2]) | effect on ABA-induced NO production (human granulocytes [3]) | effect on ABA-induced chemokinesis and chemotaxis (human granulocytes [4]) | effect on the ABA-induced increase of [Ca2+]i (human granulocytes [1]) |
| --- | --- | --- | --- | --- | --- |
| N=c1c2nc(Br)n3c2ncn1C1OC(COP(=O)(O)OP(=O)(O)OCC2OC3C(O)C2O)C(O)C1O (stereo not shown) [8-Br-cADPR, reference compound] | approx. 60% | inhibited | inhibited | inhibited | – |
| O=C(O)CN(CCN(CC(=O)O)CC(=O)O)CC(=O)O [EDTA, reference compound] | – | inhibited | inhibited | – | – |
| O=C(O)CN(CCOCCOCCN(CC(=O)O)CC(=O)O)CC(=O)O [EGTA] | – | – | – | – | almost completely prevents |
| NC(=O)c1cccnc1 [nicotinamide, reference compound] | – | inhibited | inhibited | inhibited | – |
